# According to patent US9623002B2, “Pharmaceutical compositions of Anisomelic acid and the use thereof” (priority 2012, dated 2017):
# “Also recorded” adds a separate entry of the source.
# Tests used:
# [1] = test system: SiHa cells with p53 down-regulated by p53-shRNA; assay: RNA interference: p53-shRNA SiHa cells treated with AA; assay type: cell-based
# Procedure: (§1) Cells were synchronized by serum-starvation (1% serum) for 48 h and then cultured in medium containing 10% FCS for 24 h. After this, the cells were incubated with 0, 20 and 40 μM AA for 24. These doses were chosen since apoptosis induction was highest at 40 μM (the dose was limited to 40 μM in the following studies). The cells were collected and disrupted and the nuclei labelled for DNA content with PI by re-suspension in sodium citrate buffer [40 mM Na-citrate, 0.3% Triton X-100, 50 μg/ml PI (Sigma-Aldrich)]. After incubation at room temperature for 10 min, the samples were immediately analyzed by FACSCalibur flow cytometry.
# The pSUPER vector (SEQ ID NO: 1) (Oligoengine, Seattle, Wash., USA) for expression of human p53 targeted shRNA (5′[…] AGUCUU3′, Brummelkamp et al., 2002) was kindly provided by Dr. Pia Roos-Mattjus. The scramble (Scr) pSUPER vector (SEQ ID NO: 2) (5′GCG CGC TTT GTA GGA TTC G3′, Ostling et al., 2007) was transfected to control cells. Trypsinized SiHa cells were transfected with the shRNA expression plasmids by electroporation in Opti-MEM media (Gibco, Calif., USA). Twenty four hours post-transfection, the culture medium was changed and the cells were treated with AA or left untreated, after which the cells were cultured for another 24 h or 48 h. The efficiency of the shRNA expression vector was determined by Western blotting for p53 expression.
# Whole cell lysates were prepared by lysing the cells in Laemmli sample buffer (Laemmli, 1970) and boiling the samples for 10 min after which proteins were separated in 12.5-15% SDS-PAGE. Western blotting was performed using antibodies against poly (ADP-ribose) polymerase (clone C-2-10; Sigma-Aldrich), Bid, Bax, caspase 8, caspase 9, caspase 3, SAPK/JNK, Phospho SAPK/JNK (Thr183/Tyr185), cIAP2 (Enzo Lifesciences), Akt, Phospho Akt(Ser473) (Cell Signalling Technology, Davers, Mass., USA), p21, Bcl-xL (Santa Cruz Biotechnology, Inc, Santa Cruz, Calif.), β-actin (clone AC-40; Sigma-Aldrich) and p53 (clone DO-1; BD Pharmingen). […]
# [2] = test system: caspase-9, caspase-8, caspase-3 and PARP; assay: Western blotting for cleavage of caspases and PARP; assay type: cell-based; conditions: SiHa lysates
# Procedure: Whole cell lysates were prepared by lysing the cells in Laemmli sample buffer (Laemmli, 1970) and boiling the samples for 10 min after which proteins were separated in 12.5-15% SDS-PAGE. Western blotting was performed using antibodies against poly (ADP-ribose) polymerase (clone C-2-10; Sigma-Aldrich), Bid, Bax, caspase 8, caspase 9, caspase 3, SAPK/JNK, Phospho SAPK/JNK (Thr183/Tyr185), cIAP2 (Enzo Lifesciences), Akt, Phospho Akt(Ser473) (Cell Signalling Technology, Davers, Mass., USA), p21, Bcl-xL (Santa Cruz Biotechnology, Inc, Santa Cruz, Calif.), β-actin (clone AC-40; Sigma-Aldrich) and p53 (clone DO-1; BD Pharmingen). Horseradish peroxidase-conjugated secondary antibodies were obtained from Southern Biotechnology Associates (Birmingham, Ala.), Promega (Madison, Wis.) and Amersham Biosciences (Freiburg, Germany). The results were visualized using the ECL method (Amersham Biosciences) on X-ray film. The presented Western blot results are representative of at least three independent experiments.
# HeLa cells = assay: Apoptosis analysis in HeLa cells; assay type: cell-based; conditions: HPV positive HeLa cells (p53+), 40 μM AA, 48 h
# Procedure: (§2) SiHa cells were treated with 0-50 μM AA or solvent control at 10 μM interval. […] Fourty eight hours later, the cells were collected and analyzed for apoptosis and/or necrosis. Activated caspase-3 in cells was labeled with phyco-erythrin-conjugated antibody according to manufacturer's protocol (PE Active Caspase-3 Apoptosis Kit; BD Pharmingen, San Diego, Calif.) and analyzed by FACSCalibur flow cytometer (FL-2, FSC, BD Pharmingen).
# (§3) HeLa, Caski, c33a, MCF7, MDA-MB-231 and MEF cells were treated with 0 and 40 μM AA. Forty eight hours later, the cells were collected and analyzed for apoptosis.
# c33a cells [3] = assay: Apoptosis analysis in c33a cells; assay type: cell-based; conditions: HPV negative c33a cells (p53−), 40 μM AA, 48 h
# Procedure: as §2, §3
# SiHa cells [4] = assay: PE active caspase-3 apoptosis assay by FACS; assay type: cell-based
# Procedure: as §2, with “Pharmingen). SiHa cells were also tested with 40 μM AA and AA emulsion for 24 and 48 h. The cells were collected and analyzed for apoptosis adopting PE active caspase-3 assay by FACS.” for “Pharmingen).”
# SiHa cells [5] = assay: Propidium iodide detection of permeabilized (necrotic) cells; assay type: cell-based; conditions: AA doses greater than 40 μM
# Procedure: For detection of permeabilized (necrotic) cells, the cells were trypsinized and resuspended in 50 μg/ml Propidium Iodide (PI) (Sigma-Aldrich) in PBS for 10 minutes at room temperature. The samples were analyzed by flow cytometry.
# SiHa cells [6] = assay: Mitochondrial depolarization by TMRM labeling; assay type: cell-based; conditions: 20-40 μM AA, 8-48 h
# Procedure: Tetramethylrhodamine, methyl ester (TMRM, Invitrogen, Cergy Pontoise, France) was stored as 20 mM dimethylsulfoxide stock and diluted in medium before use. The cells were incubated in 20 nM tetramethylrhodamine for 10 min in 37° C. water bath. The cells were placed on ice and analyzed immediately by FACSCalibur flow cytometry.
# MDA-MB-231 cells = assay: Apoptosis analysis in MDA-MB-231 cells; assay type: cell-based; conditions: breast cancer MDA-MB-231 cells (p53−), 40 μM AA, 48 h
# Procedure: as §2, §3
# Solubility = assay type: physicochemical
# [7] = test system: Mouse Embryonic Fibroblasts (MEF); assay: Cell death analysis in MEF cells; assay type: cell-based; conditions: non-cancerous MEF cells, 40 μM AA
# Procedure: as §2, §3
# SiHa cells [8] = assay: Cell cycle analysis of synchronized cells (PI, flow cytometry); assay type: cell-based; conditions: 24 h
# Procedure: as §1
# Caski cells = assay: Apoptosis analysis in Caski cells; assay type: cell-based; conditions: HPV positive Caski cells (p53+), 40 μM AA, 48 h
# Procedure: as §2, §3
# MCF7 cells = assay: Apoptosis analysis in MCF7 cells; assay type: cell-based; conditions: breast cancer MCF7 cells (p53+), 40 μM AA, 48 h
# Procedure: as §2, §3
# c33a cells [9] = assay: His-tag E6 plasmid transfection of c33a cells, Western blot and FACS; assay type: cell-based; conditions: 70 μM AA
# Procedure: c33a cells were pelleted and resuspended in OPTIMEM (Gibco, Invitrogen Foundation, Washington D.C., USA) and electroporated with mock or His-tag E6 plasmid at 220 V and 975 μF. Twenty four hours post-transfection, the culture medium was changed and the cells were treated with AA or left untreated, after which the cells were cultured for another 24 h or 48 h for further analysis adopting Western blotting and cell death assay by FACS.
# SiHa cells [10] = assay: MTT cytotoxicity assay; assay type: cell-based; conditions: 50 μM AA, preliminary studies, unpublished data
molecule,measurement,setting,value
"C=C1C(=O)O[C@H]2/C=C(\C)CC/C=C(\C(=O)O)CC/C=C(\C)CC[C@H]12 [AA, Anisomelic acid]","percentage of AA-induced apoptosis (caspase-3 activation, flow cytometry)","[1]; SiHa cells in the absence of p53 expression, 40 μM AA",did not observe any significant decrease
same,induction of p53 and p21 proteins by AA,"[1]; p53-shRNA SiHa cells, 40 μM & 20 μM AA respectively",abrogated
same,AA-induced cell cycle arrest,"[1]; p53-shRNA SiHa cells, 24 h after start of AA treatment",no longer accumulated at the G2/M phase
same,cleavage of caspase-3 and PARP,[2]; 20-40 μM AA,induced the cleavage of caspase-3 and poly-ADP-ribose polymerase (PARP)
same,cleavage of procaspase-9 into 35/37 kDa fragments,[2]; 20 and 40 μM AA,seen after 12 h incubation
same,cleavage of procaspase-8,[2]; AA treatment,observed abundantly only after 24 h
same,apoptosis induction,HeLa cells,effectively induced apoptosis
same,apoptosis induction,c33a cells [3],significantly less; also recorded: do not undergo apoptosis
same,time at which maximum percentage of apoptosis was achieved,SiHa cells [4]; SiHa cells,48 h
same,cells that contained activated caspase-3 as a measure of apoptosis,"SiHa cells [4]; SiHa, 40 μM AA, 48 h",marked activation of caspase-3
same,caspase-3 cleavage,"SiHa cells [4]; SiHa, AA doses greater than 40 μM",reduced caspase-3 cleavage dramatically
same,cell permeabilization by PI labeling (necrotic cell death),SiHa cells [5],could not detect increased cell permeabilization
same,mitochondrial membrane depolarization,SiHa cells [6],occured in a time-dependent manner
same,apoptosis induction,MDA-MB-231 cells,failed to induce effective apoptosis
same,solubility in DMSO and hot ethanol,Solubility,dissolves
same,solubility in water or other aqueous solvents,Solubility,mostly insoluble
same,cell death,[7],failed to induce cell death
same,cell cycle distribution,SiHa cells [8]; 20 and 40 μM AA,accumulated at the G2/M phase
same,dose at which G2/M arrest occurred more effectively,SiHa cells [8],20 µM
same,apoptosis induction,Caski cells,effectively induced apoptosis
same,apoptosis induction,MCF7 cells,failed to induce effective apoptosis
same,AA-induced apoptosis after E6 transfection,c33a cells [9]; c33a cells transfected with His-tag E6 vs mock,rescued c33a cells from apoptsis significantly
same,apoptosis induction,c33a cells [9]; c33a cells,undergo apoptosis
same,killing,SiHa cells [10],≥ 95%
Z-VAD.fmk [reference compound],effect on AA-induced caspase-3 activation,"SiHa cells [4]; SiHa, pre-incubation with 40 μM Z-VAD.fmk prior to 40 μM AA, data not shown",reversed caspase-3 activation and apoptotic cell morphology
